Read-outs that look alike come from different tables or passages of the source.
Key:
Assay in all cases: SelectScreen Kinase Profiling, single point inhibition and IC50 for off-target kinases
Assay type in all cases: biochemical
off-target kinases [1] = target: off-target kinases (Homo sapiens, UniProt P10721, A829P); settings: KIT A829P, LanthaScreen Binding
off-target kinases [2] = target: off-target kinases (Homo sapiens, UniProt P23458); settings: JAK1, ZLYTE, ATP Km app
off-target kinases [3] = target: T1, off-target kinases (Homo sapiens, UniProt O15264); settings: MAPK13 (p38 delta), ZLYTE, ATP Km app
T1 sequence (O15264 1-365): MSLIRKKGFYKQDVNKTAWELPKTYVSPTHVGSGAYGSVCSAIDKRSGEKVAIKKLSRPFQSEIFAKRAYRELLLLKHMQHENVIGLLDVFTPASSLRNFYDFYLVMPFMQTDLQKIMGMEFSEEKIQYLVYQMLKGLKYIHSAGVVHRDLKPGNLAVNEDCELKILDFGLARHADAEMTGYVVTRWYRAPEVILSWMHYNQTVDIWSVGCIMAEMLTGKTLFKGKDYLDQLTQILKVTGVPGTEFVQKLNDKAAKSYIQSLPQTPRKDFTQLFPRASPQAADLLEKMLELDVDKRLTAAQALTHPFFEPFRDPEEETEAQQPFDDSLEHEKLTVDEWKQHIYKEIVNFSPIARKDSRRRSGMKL

off-target kinases [4] = target: off-target kinases (Homo sapiens, UniProt P00533, DEL746-750); settings: EGFR (ErbB1) d746-750; mutant y; LanthaScreen Binding
off-target kinases [5] = target: off-target kinases (Homo sapiens, UniProt O43353); settings: RIPK2, LanthaScreen Binding
off-target kinases [6] = target: off-target kinases (Homo sapiens, UniProt O94921); settings: CDK14 (PFTK1)/cyclin Y, LanthaScreen Binding
off-target kinases [7] = target: off-target kinases (Homo sapiens, UniProt P17948); settings: FLT1 (VEGFR1), ZLYTE, ATP Km app
off-target kinases [8] = target: off-target kinases (Homo sapiens, UniProt Q15759); settings: MAPK11 (p38 beta), ZLYTE, ATP Km app
off-target kinases [9] = target: off-target kinases (Homo sapiens, UniProt Q9P1W9); settings: PIM2, ZLYTE, ATP Km app
off-target kinases [10] = target: off-target kinases (Homo sapiens, UniProt Q9UBF8); settings: PI4KB (PI4K beta), Adapta, ATP Km app

off-target kinases (Homo sapiens, UniProt O43353), sequence (O43353 whole entry): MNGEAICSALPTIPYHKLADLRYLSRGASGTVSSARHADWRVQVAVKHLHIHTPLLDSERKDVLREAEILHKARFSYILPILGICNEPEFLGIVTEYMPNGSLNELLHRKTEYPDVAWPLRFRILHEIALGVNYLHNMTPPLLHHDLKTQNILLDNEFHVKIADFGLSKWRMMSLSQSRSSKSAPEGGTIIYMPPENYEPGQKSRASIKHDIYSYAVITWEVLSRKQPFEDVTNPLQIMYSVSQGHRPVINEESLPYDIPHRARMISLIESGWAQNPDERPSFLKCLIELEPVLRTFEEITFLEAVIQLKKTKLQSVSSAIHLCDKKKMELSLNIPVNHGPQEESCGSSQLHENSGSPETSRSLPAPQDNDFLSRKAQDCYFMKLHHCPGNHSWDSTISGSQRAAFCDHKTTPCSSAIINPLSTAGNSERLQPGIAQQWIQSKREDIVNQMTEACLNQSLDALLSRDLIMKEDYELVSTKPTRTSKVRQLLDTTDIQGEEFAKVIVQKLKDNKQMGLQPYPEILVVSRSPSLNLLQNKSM
off-target kinases (Homo sapiens, UniProt O94921), sequence (O94921 whole entry): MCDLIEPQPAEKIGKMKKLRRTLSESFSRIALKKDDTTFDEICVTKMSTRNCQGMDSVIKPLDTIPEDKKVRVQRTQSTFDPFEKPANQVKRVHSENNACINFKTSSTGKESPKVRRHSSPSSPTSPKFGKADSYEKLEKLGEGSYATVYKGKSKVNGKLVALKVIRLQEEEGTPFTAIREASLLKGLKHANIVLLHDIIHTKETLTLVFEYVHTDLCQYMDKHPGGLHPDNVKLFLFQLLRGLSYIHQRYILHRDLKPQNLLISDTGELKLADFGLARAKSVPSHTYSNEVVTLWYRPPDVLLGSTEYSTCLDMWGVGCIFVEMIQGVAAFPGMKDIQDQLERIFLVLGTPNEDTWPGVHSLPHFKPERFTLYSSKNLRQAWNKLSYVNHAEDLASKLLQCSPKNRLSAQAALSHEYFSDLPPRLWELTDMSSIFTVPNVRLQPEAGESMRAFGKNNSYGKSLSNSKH
off-target kinases (Homo sapiens, UniProt P23458), sequence (P23458 whole entry): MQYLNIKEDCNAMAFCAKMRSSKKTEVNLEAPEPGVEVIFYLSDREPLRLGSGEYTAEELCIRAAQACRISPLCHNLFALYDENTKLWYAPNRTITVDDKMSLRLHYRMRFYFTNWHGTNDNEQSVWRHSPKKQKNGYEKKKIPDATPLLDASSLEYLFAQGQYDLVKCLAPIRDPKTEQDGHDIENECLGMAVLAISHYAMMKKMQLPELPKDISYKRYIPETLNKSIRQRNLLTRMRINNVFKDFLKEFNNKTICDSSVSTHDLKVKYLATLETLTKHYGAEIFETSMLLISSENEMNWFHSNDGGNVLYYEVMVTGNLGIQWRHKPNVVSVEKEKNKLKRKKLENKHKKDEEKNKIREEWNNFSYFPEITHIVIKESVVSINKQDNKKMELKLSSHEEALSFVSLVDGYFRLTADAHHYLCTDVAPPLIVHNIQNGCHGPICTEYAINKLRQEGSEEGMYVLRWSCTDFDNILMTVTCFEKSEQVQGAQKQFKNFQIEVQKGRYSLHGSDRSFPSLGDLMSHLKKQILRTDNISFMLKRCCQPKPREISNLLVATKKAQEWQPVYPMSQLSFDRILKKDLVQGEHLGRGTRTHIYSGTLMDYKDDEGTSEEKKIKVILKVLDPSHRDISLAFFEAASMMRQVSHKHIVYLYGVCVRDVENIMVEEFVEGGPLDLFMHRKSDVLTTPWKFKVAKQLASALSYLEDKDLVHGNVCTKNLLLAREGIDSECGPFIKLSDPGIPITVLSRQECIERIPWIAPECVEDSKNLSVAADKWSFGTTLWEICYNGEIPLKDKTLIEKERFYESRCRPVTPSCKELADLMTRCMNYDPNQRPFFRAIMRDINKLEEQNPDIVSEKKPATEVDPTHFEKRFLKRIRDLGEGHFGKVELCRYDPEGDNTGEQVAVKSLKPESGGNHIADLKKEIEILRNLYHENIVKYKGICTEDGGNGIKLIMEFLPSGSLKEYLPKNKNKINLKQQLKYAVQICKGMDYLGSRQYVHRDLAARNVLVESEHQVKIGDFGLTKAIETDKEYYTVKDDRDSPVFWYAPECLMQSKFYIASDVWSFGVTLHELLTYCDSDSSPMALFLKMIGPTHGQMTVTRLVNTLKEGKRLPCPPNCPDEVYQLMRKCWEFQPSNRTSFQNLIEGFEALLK
off-target kinases (Homo sapiens, UniProt P10721, A829P), sequence (P10721 26-976 A829P): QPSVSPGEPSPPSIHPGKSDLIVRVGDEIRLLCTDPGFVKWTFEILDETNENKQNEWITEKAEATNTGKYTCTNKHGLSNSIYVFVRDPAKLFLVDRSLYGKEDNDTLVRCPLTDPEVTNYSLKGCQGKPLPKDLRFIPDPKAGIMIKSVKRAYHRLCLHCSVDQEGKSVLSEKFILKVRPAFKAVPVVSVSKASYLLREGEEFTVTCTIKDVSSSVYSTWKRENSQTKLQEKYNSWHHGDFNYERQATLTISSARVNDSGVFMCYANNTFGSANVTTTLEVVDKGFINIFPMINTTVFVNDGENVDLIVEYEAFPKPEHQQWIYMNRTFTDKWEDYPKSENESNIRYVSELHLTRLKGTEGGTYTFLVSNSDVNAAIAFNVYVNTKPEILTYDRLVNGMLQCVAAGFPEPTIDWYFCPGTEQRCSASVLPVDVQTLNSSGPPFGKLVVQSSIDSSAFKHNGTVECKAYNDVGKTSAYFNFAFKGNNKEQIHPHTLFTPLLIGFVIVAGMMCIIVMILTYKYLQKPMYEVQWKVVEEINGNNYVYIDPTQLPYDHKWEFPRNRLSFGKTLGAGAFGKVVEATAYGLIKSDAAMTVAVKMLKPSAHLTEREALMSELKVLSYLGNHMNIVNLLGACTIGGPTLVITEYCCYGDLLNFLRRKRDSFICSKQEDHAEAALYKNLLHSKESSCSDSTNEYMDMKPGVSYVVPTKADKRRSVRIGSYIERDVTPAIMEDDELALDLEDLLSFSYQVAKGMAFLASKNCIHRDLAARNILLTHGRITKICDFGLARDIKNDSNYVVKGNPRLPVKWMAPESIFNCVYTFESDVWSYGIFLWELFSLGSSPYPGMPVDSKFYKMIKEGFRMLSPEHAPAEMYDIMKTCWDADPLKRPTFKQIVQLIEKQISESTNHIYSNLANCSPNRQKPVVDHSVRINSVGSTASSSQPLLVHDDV
off-target kinases (Homo sapiens, UniProt P17948), sequence (P17948 27-1338): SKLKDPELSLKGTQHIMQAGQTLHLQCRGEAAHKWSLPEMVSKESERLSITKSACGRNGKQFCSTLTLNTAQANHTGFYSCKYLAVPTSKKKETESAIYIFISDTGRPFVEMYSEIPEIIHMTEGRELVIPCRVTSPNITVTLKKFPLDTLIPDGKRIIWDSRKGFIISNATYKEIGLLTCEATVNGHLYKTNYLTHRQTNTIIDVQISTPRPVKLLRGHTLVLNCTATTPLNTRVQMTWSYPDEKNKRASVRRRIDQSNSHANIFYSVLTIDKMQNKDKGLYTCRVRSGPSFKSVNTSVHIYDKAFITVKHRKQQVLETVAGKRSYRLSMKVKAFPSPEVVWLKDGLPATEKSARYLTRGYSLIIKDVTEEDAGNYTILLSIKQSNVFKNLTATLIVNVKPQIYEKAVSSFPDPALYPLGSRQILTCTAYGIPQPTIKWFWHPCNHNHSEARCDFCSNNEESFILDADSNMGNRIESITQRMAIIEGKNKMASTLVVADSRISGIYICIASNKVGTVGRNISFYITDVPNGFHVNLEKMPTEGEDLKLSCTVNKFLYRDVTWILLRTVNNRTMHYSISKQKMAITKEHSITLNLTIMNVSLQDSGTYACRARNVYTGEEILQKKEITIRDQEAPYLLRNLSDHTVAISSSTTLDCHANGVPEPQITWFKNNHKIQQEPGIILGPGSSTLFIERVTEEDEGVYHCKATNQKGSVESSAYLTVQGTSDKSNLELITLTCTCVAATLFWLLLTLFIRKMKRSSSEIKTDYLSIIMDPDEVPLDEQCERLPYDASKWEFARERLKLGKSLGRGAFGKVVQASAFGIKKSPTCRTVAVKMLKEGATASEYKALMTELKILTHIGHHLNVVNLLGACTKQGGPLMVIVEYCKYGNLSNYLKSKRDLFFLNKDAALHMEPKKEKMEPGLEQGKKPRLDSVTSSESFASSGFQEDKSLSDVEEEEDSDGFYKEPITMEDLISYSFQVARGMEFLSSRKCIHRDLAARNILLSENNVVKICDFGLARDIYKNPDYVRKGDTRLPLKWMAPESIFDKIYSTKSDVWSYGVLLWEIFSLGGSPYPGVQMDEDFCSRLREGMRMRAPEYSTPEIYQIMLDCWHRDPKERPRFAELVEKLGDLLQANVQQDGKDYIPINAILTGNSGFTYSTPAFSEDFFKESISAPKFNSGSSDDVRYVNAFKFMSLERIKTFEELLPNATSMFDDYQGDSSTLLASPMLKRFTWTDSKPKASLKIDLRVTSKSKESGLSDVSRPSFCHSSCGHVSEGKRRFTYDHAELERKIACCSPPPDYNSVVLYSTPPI
off-target kinases (Homo sapiens, UniProt Q9P1W9), sequence (Q9P1W9 whole entry): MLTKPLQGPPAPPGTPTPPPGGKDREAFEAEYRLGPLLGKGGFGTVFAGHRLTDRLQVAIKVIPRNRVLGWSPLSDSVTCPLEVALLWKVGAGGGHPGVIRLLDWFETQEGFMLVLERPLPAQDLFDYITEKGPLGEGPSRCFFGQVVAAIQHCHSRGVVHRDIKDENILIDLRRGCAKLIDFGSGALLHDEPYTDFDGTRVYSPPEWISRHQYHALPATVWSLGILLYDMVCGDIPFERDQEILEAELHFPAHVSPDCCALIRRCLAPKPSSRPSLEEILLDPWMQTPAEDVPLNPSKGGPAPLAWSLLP

Compound `N#Cc1cc(-c2ncnc(Nc3ccc(N4CCN(C5COC5)CC4)cc3)n2)ccc1OC1CCOCC1` [Compound 1, 5-(4-((4-(4-(oxetan-3-yl)piperazin-1-yl)phenyl)amino)-1,3,5-triazin-2-yl)-2-((tetrahydro-2H-pyran-4-yl)oxy)benzonitrile] has an inhibition (off-target kinases [1]; read-out: % Inhibition 1) of 91%, an inhibition (off-target kinases [1]; read-out: % Inhibition 2) of 90% and an inhibition (off-target kinases [1]; read-out: % Inhibition Avg) of 90%. The inhibition (off-target kinases [2]; read-out: % Inhibition 1) was 11%, the inhibition (off-target kinases [2]; read-out: % Inhibition 2) was 10% and the inhibition (off-target kinases [2]; read-out: % Inhibition Avg) was 10%. The inhibition (off-target kinases [3]; read-out: % Inhibition 1) was 7%, the inhibition (off-target kinases [3]; read-out: % Inhibition 2) was 9% and the inhibition (off-target kinases [3]; read-out: % Inhibition Avg) was 8%. The inhibition (off-target kinases [4]) was 14%, the inhibition (off-target kinases [5]; read-out: % Inhibition 1) was 84% and the inhibition (off-target kinases [5]; read-out: % Inhibition 2) was 86%. For the same compound, the inhibition (off-target kinases [5]; read-out: % Inhibition Avg) was 85%, the inhibition (off-target kinases [6]; read-out: % Inhibition 1) was 56% and the inhibition (off-target kinases [6]; read-out: % Inhibition 2) was 51%. The inhibition (off-target kinases [6]; read-out: % Inhibition Avg) was 54%, the inhibition (off-target kinases [7]; read-out: % Inhibition 1) was 7% and the inhibition (off-target kinases [7]; read-out: % Inhibition 2) was 4%. It also gave an inhibition (off-target kinases [7]; read-out: % Inhibition Avg) of 6%, an inhibition (off-target kinases [8]; read-out: % Inhibition 1) of 6% and an inhibition (off-target kinases [8]; read-out: % Inhibition 2) of 4%. It also gave an inhibition (off-target kinases [8]; read-out: % Inhibition Avg) of 5%, an inhibition (off-target kinases [9]; read-out: % Inhibition 1) of -1% and an inhibition (off-target kinases [9]; read-out: % Inhibition 2) of 7%. It also gave an inhibition (off-target kinases [9]; read-out: % Inhibition Avg) of 3%, an inhibition (off-target kinases [10]; read-out: % Inhibition 1) of 7% and an inhibition (off-target kinases [10]; read-out: % Inhibition 2) of 3%. For the same compound, the inhibition (off-target kinases [10]; read-out: % Inhibition Avg) was 5%.

Reference: patent US11572590B2, “Methods for evaluating tumor cell spheroids using 3D microfluidic cell culture device” (Dana-Farber Cancer Institute, Inc., priority 2017, dated 2023)
